{"source": "patent US10988774B2", "about": "“System for site-specific modification of ALS gene using CRISPR-Cas9 system for production of herbicide-resistant rice and use of same” (Institute of Crop Sciences, Chinese Academy of Agricultural …, priority 2015, dated 2021)", "key": {"[1]": {"system": "T0 site-specifically modified rice of the Cas9-arm donor group (ALS W548L, S627I)", "assay": "Resistance to herbicide Bispyribac-sodium, spray test, ALS site-specifically modified rice", "type": "in vivo, Nipponbare rice", "conditions": "homologous recombinant rice, ALS W548L and S627I; spray 100 μM; 36 days after spraying", "experimental": "(§1) The wild-type rice, and the T0 site-specifically modified rice of the Cas9-arm donor group with successful homologous recombination at the codons of both the 548th and 627th amino acids of ALS as obtained in step I were sprayed with Bispyribac-sodium in a concentration of 100 μM, and 30-50 days thereafter, the growth states of the plants were observed."}, "[2]": {"system": "wild-type rice", "assay": "Resistance to herbicide Bispyribac-sodium, spray test, wild-type rice", "type": "in vivo, Nipponbare rice", "conditions": "spray 100 μM, 36 days after spraying", "experimental": "as §1"}}}
{"smiles": "COc1cc(OC)nc(Oc2cccc(Oc3nc(OC)cc(OC)n3)c2C(=O)O)n1", "note": "[Bispyribac-sodium]", "values": [{"measurement": "growth state of the plants after spraying", "setting": "[1]", "result": "normal growth"}, {"measurement": "growth state of the plants after spraying", "setting": "[2]", "result": "withered"}]}
